Patent EP4389746A2, “P2X3 RECEPTOR ANTAGONISTS” (Recordati Industria Chimica E Farmaceutica SPA, priority 2022, dated 2024)

Experiments:
[1] = biological target: T1, human P2X2/3 receptor (Homo sapiens, UniProt P56373+Q9UBL9); assay: Calcium fluorescence measurement: human P2X2/3 receptor activity inhibition (CHO-K1 cells, Fluo-8 NoWash, […]); format: cell-based
T1 construct: expressed in transfected cells; host or cells: CHO-K1
T1 sequence (P56373 1-397): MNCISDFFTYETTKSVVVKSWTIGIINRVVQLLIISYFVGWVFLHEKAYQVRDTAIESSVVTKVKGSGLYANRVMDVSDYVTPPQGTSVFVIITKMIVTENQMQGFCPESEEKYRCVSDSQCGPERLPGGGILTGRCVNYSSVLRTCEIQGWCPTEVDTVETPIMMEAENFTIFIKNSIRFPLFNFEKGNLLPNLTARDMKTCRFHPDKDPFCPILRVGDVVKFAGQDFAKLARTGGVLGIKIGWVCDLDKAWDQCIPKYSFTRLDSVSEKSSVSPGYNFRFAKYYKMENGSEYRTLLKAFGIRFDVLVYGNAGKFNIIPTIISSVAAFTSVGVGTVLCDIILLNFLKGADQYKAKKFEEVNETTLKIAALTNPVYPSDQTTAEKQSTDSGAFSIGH
T1 sequence (Q9UBL9 1-471): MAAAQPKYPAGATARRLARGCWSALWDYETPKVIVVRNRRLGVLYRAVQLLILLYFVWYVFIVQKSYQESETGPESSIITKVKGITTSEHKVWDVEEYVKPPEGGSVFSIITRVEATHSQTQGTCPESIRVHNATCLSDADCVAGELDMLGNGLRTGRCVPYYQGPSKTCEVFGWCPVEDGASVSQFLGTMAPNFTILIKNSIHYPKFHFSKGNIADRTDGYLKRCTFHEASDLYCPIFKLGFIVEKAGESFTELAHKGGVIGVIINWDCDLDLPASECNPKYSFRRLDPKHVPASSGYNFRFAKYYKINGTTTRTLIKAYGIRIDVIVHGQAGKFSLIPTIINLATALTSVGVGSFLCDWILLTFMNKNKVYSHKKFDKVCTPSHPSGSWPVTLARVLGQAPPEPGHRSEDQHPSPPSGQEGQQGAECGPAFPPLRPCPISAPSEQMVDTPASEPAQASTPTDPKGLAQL
Method: Determination of human P2X2/3 receptor activity inhibition
The assay for the human P2RX2/X3 has been evaluated by the screening instrumentation using the […] as reader and the FLUO8-NoWash dye as fluorescent readout for calcium detection.
CHO-K1 cells recombinantly expressing the human P2RX2/X3 channel are maintained in DMEM F-12 (1:1) mixture (LONZA cat. n°: BE04-687F/U1) supplemented with 5 mL of 100 mM Sodium Pyruvate (LONZA cat. n° BE13-115E), 25 mL of 7.5% Sodium Bicarbonate (LONZA cat. n° BE17-613E), 6.5 mL of 1M Hepes (LONZA cat. n° BE17-737E), 5 mL of 100X Penicillin/Streptomycin mixture (LONZA cat. n° DE17-602E) and 50 mL of Fetal Bovine Serum (Sigma cat. n° F7524), 5 µg/mL Puromycin dihydrochloride (Sigma cat. n° P9620) and 1 mg/ml G418 disulfate salt (Sigma cat. n° G8168).
Cells were seeded into black-walled clear bottom 384 Multiwell plates at a density of 10.000 cells/well in complete medium. After 24 h the culture medium was replaced with 20 µL/well of Fluo-8 NoWash calcium sensitive dye (AAT Bioquest cat. n° 36316) diluted in Tyrode's buffer (Standard Tyrode's buffer: in house solution, 130 mM NaCl, 5 mM KCl, 2 mM CaCl2, 5 mM NaHCO3, 1 mM MgCl2, 20 mM HEPES, pH 7.4).
The plates were incubated for 1 hours at 37°C and injected with 10 µL/well of test compounds at 3X concentration in Tyrode's buffer with the […]. After 5 minutes a second injection of 15 µL/well of 10µM α,β-Met-ATP in Tyrode's buffer (α,β-Met-ATP: from Tocris cat. n° 3209) was performed and the signal of the emitted fluorescence was recorded by […] (Molecular Devices).
The selectivity is expressed as the ratio of IC50 of P2X2/3/ P2X3 receptors. Table 8: Human P2X3 and h-P2X2/3 receptor antagonist activity for selected compounds of the invention.

[2] = test system: C57BL/6J mice; assay: Scratching model: inhibition of ATP induced pruritus in mouse; format: in vivo
Method: (§1) C57BL/6J mice, Hartley Guinea pigs and Sprague-Dawley Rats from Charles River Italy were used in the experiments. Animals were housed with free access to food and water and maintained on a forced 12 hr light-dark cycle at 22-24°C for at least one week before the experiments were carried out. The animals were handled according to internationally accepted principles for care of laboratory animals (Directive 2010/63/EU of the European Parliament and of the Council of 22 September 2010).
"Scratchng model" - Inhibition of ATP induced pruritus in mouse
Mice were shaved at the rostral back the day before injection. The day of the experiment, an intradermal injection of the irritant agent α,β-meATP 200 µg/50 µL (Sigma, Italy) into the skin was performed. The hind limb scratching behavior directed toward the injection site, was recorded. One bout was defined as the lifting of the hindlimb toward the injection site and then placing the limb back on the floor. The number of bouts were counted for a period of 30 minutes. The Example 22 compound investigated was injected intraperitoneally 30 min before the administration of the irritant agent. (Fig. 2)
In the scratching model the results are presented as mean ± SEM of the values. Statistical analysis was performed using one-way ANOVA and Dunnet's test for multiple comparisons. The ED35 of the tested compounds was determined by linear regression analysis of bouts (Graphpad v5).

[3] = test system: Hartley Guinea pigs; assay: Cough model: inhibition of citric acid induced cough in guinea pig; format: in vivo; settings: intraperitoneally 30 min before nebulization of citric acid 0.4 M, compared with vehicle (Fig. 3)
Method: as §1
"Cough model" - Inhibition of citric acid induced cough in guinea pig
Conscious guinea pigs were placed in the transparent chamber of the whole-body plethysmograph (EMKA) and allowed to move freely. The number of coughs was registered by the IOX2 software for 10 minutes during and 10 minutes after the nebulization of citric acid 0.4 M. Example 22 was injected intraperitoneally 30 min before the nebulization of citric acid. (see Fig. 3) In cough model the results are presented as mean ± SEM of the values. Statistical analysis was performed using one-way ANOVA and Dunnet's test for multiple comparisons.

[4] = test system: Sprague-Dawley Rats; assay: Two bottle taste test in rats: dysgeusia effect of P2X3 antagonists; format: in vivo; settings: rats water fasted overnight; bottles presented 30 minutes after treatment for 15 minutes (Fig. 4)
Method: as §1
(Fig 3) "Two bottle taste test" in rats - Dysgeusia effect of P2X3 antagonists
Rats were water fasted overnight. The day of the experiment the animals were treated with tested compounds and 30 minutes later two bottles were presented for 15 minutes, the first one containing water and the second bottle containing Quinine, a substance showing a bitter taste. The volume of liquid drunk in 15 minutes from each bottle was recorded and expressed as percentage of preference (Fig.4). Statistical analysis was performed on absolute values (mean ± SEM) using one-way ANOVA and Tukey's test for multiple comparisons.

With CC(C)C1C(=O)N=C2c3ncc(N4CCOCC4)cc3N(Cc3ccc(Cl)cc3)C(=O)N21 (racemic) [Example 22, 6-[(4-Chlorophenyl)methyl]-8-(morpholin-4-yl)-3-(propan-2-yl)imidazo[1,2-c]pyrido[2,3-e]pyrimidine-2,5(3H,6H)-dione] the IC50 ([1]; CHO-K1 cells expressing human P2RX2/X3 channel, 10µM α,β-Met-ATP, read-out: h-P2X2/3 IC50) was 18.8 µM, the Selectivity ([1]; ratio of IC50 of P2X2/3/ P2X3 receptors) was 510 and the “ED35” value ([2]; dose inhibiting the 35% of number of bouts, intraperitoneally 30 min before α,β-meATP 200 µg/50 µL intradermal, bouts counted for 30 minutes) was 10.62 mg/kg. The number of bouts ([2]; intraperitoneally 30 min before α,β-meATP, vs vehicle group (Fig. 2)) was “reduce the number of bouts significantly and in a dose-related manner”, the number of coughs [3] was “significantly reduced the number of coughs both during and after the nebulization of citric acid” and the “preference between water and Quinine” value [4] was “showed a clear preference for water in comparison to Quinine”.
